Values after ≈ are worked out from the molar mass of the structure shown.
Tests used:
[1] = system: L1210; test: Cytotoxicity against mouse L1210 cells; assay type: functional, cell-based; conditions: Mus musculus, L1210
[2] = system: KB; test: Cytotoxicity against human KB cells; assay type: functional, cell-based; conditions: Homo sapiens
[3] = system: LoVo; test: Cytotoxicity against human LoVo cells; assay type: functional
[4] = system: A549; test: Cytotoxicity against human A549 cells; assay type: functional, cell-based; conditions: Homo sapiens, A549
[5] = system: P388; test: Cytotoxicity against mouse P388 cells; assay type: functional, cell-based; conditions: Mus musculus, P388; for EC50: read-out: ED50 (the source's name)
[6] = system: EL4; test: Cytotoxicity against […] cells; assay type: functional, cell-based; conditions: Mus musculus
[7] = Cytotoxicity against human GXF251L cells; assay type: functional, cell-based; conditions: GXF 251L
[8] = Cytotoxicity against human LXF529L cells; assay type: functional, cell-based; conditions: LXF 529L
[9] = Cytotoxicity against human MAXF401NL cells; assay type: functional, cell-based; conditions: MAXF 401NL
[10] = Cytotoxicity against human MAXF642NL cells; assay type: functional, cell-based
[11] = Cytotoxicity against human RXF486L cells; assay type: functional, cell-based; conditions: RXF 486L
[12] = Cytotoxicity against human UXF1138L cells; assay type: functional, cell-based; conditions: UXF 1138L
[13] = system: WEHI-164; test: Cytotoxicity against mouse WEHI164 cells; assay type: functional, cell-based
[14] = Cytotoxicity against human H116 cells; assay type: functional, cell-based
[15] = system: PSN1; test: Cytotoxicity against human PSN1 cells; assay type: functional, cell-based
[16] = system: T98G; test: Cytotoxicity against human T98G cells; assay type: functional, cell-based
[17] = system: SK-BR-3; test: Cytotoxicity against human SKBR3 cells; assay type: functional, cell-based
[18] = Cytotoxicity against mouse B16-F1cells; assay type: functional, cell-based; conditions: B16-F1
[19] = Cytotoxicity against human P833 cells; assay type: functional, cell-based
[20] = system: Candida albicans; test: Antifungal activity against Candida albicans; assay type: functional
[21] = Cytotoxicity against human NCI60 cells; assay type: functional
[22] = system: BXPC-3; test: Cytotoxicity against human BXPC3 cells; assay type: functional
[23] = system: MCF7; test: Cytotoxicity against human MCF7 cells; assay type: functional, cell-based
[24] = system: SF-268; test: Cytotoxicity against human SF268 cells; assay type: functional, cell-based
[25] = system: NCI-H460; test: Cytotoxicity against human NCI-H460 cells; assay type: functional, cell-based
[26] = system: KM-20L2; test: Cytotoxicity against human KM20L2 cells; assay type: functional
[27] = system: DU-145; test: Cytotoxicity against human DU145 cells; assay type: functional, cell-based
[28] = Cytotoxicity against human CFUGM; assay type: functional; conditions: CFU-GM
[29] = Cytotoxicity against mouse Ehrlich Ascites carcinoma by clonogenic assay; assay type: functional
[30] = Cytotoxicity against mouse Ehrlich Ascites carcinoma by […] assay; assay type: functional
[31] = system: HT-29; test: Cytotoxicity against human HT29 cells; assay type: functional, cell-based; conditions: Homo sapiens, HT-29
[32] = system: Vesicular stomatitis virus; test: Antiviral activity against Vesicular stomatitis virus; assay type: functional, organism-based
[33] = system: Human alphaherpesvirus 1; test: Antiviral activity against herpes simplex virus type-1; assay type: functional, organism-based
[34] = system: Plasmodium falciparum; test: Antimalarial activity against Plasmodium falciparum W2; assay type: functional, organism-based
[35] = system: PC-3; test: Cytotoxicity against human PC3 cells; assay type: functional, cell-based
[36] = Cytotoxicity against human HERP3B cells; assay type: functional
[37] = Cytotoxicity against human […] cells; assay type: functional; conditions: read-out: ED50 (the source's name)

CC(CCCC/C=C/CC/C=C\c1ccccc1)C[C@]1(C)C[C@](C)(CC(=O)O)OO1 (stereo partly drawn) [EPIPLAKINIC ACID C]
IC50 [1]: 0.052 µg/mL (≈ 0.125 µM) | MIC [2]: 0.01 µg/mL (≈ 0.0241 µM) | MIC [3]: 1 µg/mL (≈ 2.41 µM) | IC50 [4]: 2 µg/mL (≈ 4.82 µM) | IC50 [5]: 2.5 µg/mL (≈ 6.03 µM) | IC50 [6]: 4.6 µg/mL (≈ 11.1 µM)

CCCCC[C@@]1(CC)C=C(CC)[C@@H](CC(=O)OC)OO1
IC50 [7]: > 10 µg/mL | IC50 [8]: > 10 µg/mL | IC50 [9]: > 10 µg/mL | IC50 [10]: > 10 µg/mL | IC50 [11]: > 10 µg/mL | IC50 [12]: > 10 µg/mL

CCCCC(CC)C/C(C)=C/[C@@]1(CC)C[C@@H](CC)[C@@H](CC(=O)OC)OO1 (stereo partly drawn)
IC50 [13]: 9.5 µg/mL (≈ 25.8 µM)

C[C@@H]1C[C@@H]([C@H](O)CC2CC(=O)NC(=O)C2)C(=O)[C@@H](C)C1 [CYCLOHEXIMIDE]
IC50 [4]: 0.1 µg/mL (≈ 0.355 µM) | IC50 [14]: 0.1 µg/mL (≈ 0.355 µM) | IC50 [15]: 0.01 µg/mL (≈ 0.0355 µM) | IC50 [16]: 2.5 µg/mL (≈ 8.89 µM) | IC50 [17]: 0.05 µg/mL (≈ 0.178 µM)

COC(=O)C[C@H]1OO[C@](C)(C/C(C)=C/C(C)=C/Cc2ccccc2)C[C@H]1C [CAPUCINOATE B]
IC50 [18]: 0.012 µg/mL (≈ 0.0322 µM)

CCCC[C@H](CC)C[C@]1(CC)C=C(CC)[C@H](CC(=O)O)OO1 [HATERUMADIOXIN B]
IC50 [19]: 0.0055 µg/mL (≈ 0.0176 µM)

CC(CCCCCC/C=C\C=C\c1ccccc1)CC1(C)CC(C)(CC(=O)O)OO1 (single isomer, unassigned)
MIC [20]: 1.6 µg/mL (≈ 3.86 µM)

CC1(C)CC(C23C=CC(CO)(CCC2)OO3)CCC1Br (stereo not drawn) [MAJAPOLENES A]
GI50 [21]: 0.4 µM | TGI [21]: 0.9 µM | CC50 ([21]; read-out: LC50 (the source's name)): 2.8 µM

CC/C=C/C(CC)C/C(C)=C/[C@]1(CC)C[C@@H](CC)[C@H](CC(=O)OC)OO1 (stereo partly drawn)
IC50 [13]: 8.2 µg/mL (≈ 22.4 µM)

CC(CCCCCC/C=C\C=C\c1ccccc1)C[C@]1(C)C[C@](C)(CC(=O)O)OO1 (stereo partly drawn)
MIC [20]: 1.6 µg/mL (≈ 3.86 µM)

CC/C(=C\[C@@]1(CC)C[C@H](CC)[C@H](CC(=O)OC)OO1)[C@H]1O[C@H]1CC [PLAKORSTATIN 1]
EC50 [5]: 1.1 µg/mL (≈ 3.23 µM) | GI50 [22]: >10 | GI50 [23]: >10 | GI50 [24]: 1.8 | GI50 [25]: >10 | GI50 [26]: >10 | GI50 [27]: >10

CC/C=C/C(CC)C/C(C)=C/[C@]1(CC)C[C@H](CC)[C@H](CC(=O)OC)OO1 (stereo partly drawn) [PLAKORTIDE H]
IC50 [13]: 7.1 µg/mL (≈ 19.4 µM)

C[C@@H]1CC[C@H]2[C@@H](C)C(=O)O[C@@H]3O[C@@]4(C)CC[C@@H]1[C@]32OO4 [ARTEMISININ]
IC50 [28]: 385 µM | IC50 [29]: > 1000 µM | IC50 [30]: > 723 µM

CC/C=C/[C@H](CC)C[C@]1(CC)C=C(CC)[C@H](CC(=O)O)OO1 [HATERUMADIOXIN A]
IC50 [19]: 0.011 µg/mL (≈ 0.0354 µM)

CC(C)(OO)C1=C[C@@]23CCC4C(C)(C)CCC[C@]4(C)[C@H]2C[C@H]1OO3 (stereo partly drawn)
IC50 [4]: 5 µg/mL (≈ 14.9 µM) | IC50 [14]: 2.5 µg/mL (≈ 7.43 µM) | IC50 [15]: 5 µg/mL (≈ 14.9 µM) | IC50 [16]: > 5 µg/mL | IC50 [17]: > 5 µg/mL

C[C@H](C(=O)O)[C@@H]1CC[C@@](C)(CC[C@@]2(O)[C@H](C)CC[C@@]3(C)C(C)(C)CCC[C@]23C)OO1 [MYCAPEROXIDE B]
IC50 [4]: 0.5 µg/mL (≈ 1.18 µM) | IC50 [5]: 0.5 µg/mL (≈ 1.18 µM) | IC50 [31]: 0.5 µg/mL (≈ 1.18 µM) | IC50 [32]: 0.25 µg/mL (≈ 0.589 µM) | IC50 [33]: 0.25 µg/mL (≈ 0.589 µM)

CCC/C=C/[C@]1(CC)C[C@H](CC)[C@H](CC(=O)O)OO1 [PLAKORTIDE L]
IC50 [34]: 0.57 µg/mL (≈ 2.11 µM)

C=C1C(=O)O[C@@H]2O[C@@]3(C)CC[C@H]4[C@H](C)CC[C@@H]1[C@@]24OO3
IC50 [28]: 1.7 µM | IC50 [29]: 10 µM | IC50 [30]: 11.3 µM

C[C@H](C(=O)O)[C@@H]1CC[C@](C)(CC[C@]2(C)[C@H](C)CC[C@@]3(C)C(C)(C)CCC[C@]32O)OO1 [MYCAPEROXIDE A]
IC50 [4]: 0.5 µg/mL (≈ 1.18 µM) | IC50 [5]: 0.5 µg/mL (≈ 1.18 µM) | IC50 [31]: 0.5 µg/mL (≈ 1.18 µM) | IC50 [32]: 0.25 µg/mL (≈ 0.589 µM) | IC50 [33]: 0.25 µg/mL (≈ 0.589 µM)

CCOc1ccc(OOc2ccc(OCC)c3cc4c(cc23)[C@]2(C)CCC(=O)c3coc(c32)C4=O)c2cc3c(cc12)[C@@]1(C)CCC(=O)c2coc(c21)C3=O
Activity [35]: 35 | Activity [36]: 5

CC/C(=C\[C@@]1(CC)C[C@H](CC)[C@H](CC(=O)OC)OO1)[C@@H]1O[C@@H]1CC [PLAKORSTATIN 2]
EC50 [5]: 0.91 µg/mL (≈ 2.67 µM) | GI50 [22]: 6.4 | GI50 [23]: 3.8 | GI50 [24]: 1.6 | GI50 [25]: >10 | GI50 [26]: 6.7 | GI50 [27]: 1.7

COC(=O)C[C@H]1OO[C@](C)(C/C(C)=C/C=C/Cc2ccccc2)C[C@H]1C [CAPUCINOATE A]
IC50 [18]: 0.012 µg/mL (≈ 0.0335 µM)

CC(=O)O[C@H]1C(=O)[C@@]2(C)[C@H]([C@H](OC(=O)c3ccccc3)[C@]3(O)C[C@H](OC(=O)[C@H](O)[C@@H](NC(=O)c4ccccc4)c4ccccc4)C(C)=C1C3(C)C)[C@]1(OC(C)=O)CO[C@@H]1C[C@@H]2O [PACLITAXEL]
Activity [35]: 80 | Activity [36]: 85

CCCCCC[C@@]1(CC)C=C(CC)[C@@H](CC(=O)OC)OO1
IC50 [7]: 8.3 µg/mL (≈ 27.8 µM) | IC50 [8]: 7.7 µg/mL (≈ 25.8 µM) | IC50 [9]: 14.9 µg/mL (≈ 49.9 µM) | IC50 [10]: 7.2 µg/mL (≈ 24.1 µM) | IC50 [11]: 14.4 µg/mL (≈ 48.3 µM) | IC50 [12]: 14.1 µg/mL (≈ 47.2 µM)

COc1ccc(OOc2ccc(OC)c3cc4c(cc23)[C@]2(C)CCC(=O)c3coc(c32)C4=O)c2cc3c(cc12)[C@@]1(C)CCC(=O)c2coc(c21)C3=O
Activity [35]: 56 | Activity [36]: 5

CCC(=O)/C=C/[C@@]1(CC)C[C@H](CC)[C@H](CC(=O)OC)OO1 [PLAKORTOLIDE I(M)]
IC50 [34]: 0.57 µg/mL (≈ 1.91 µM)

CCC/C=C/[C@]1(CC)C[C@H](CC)[C@H](CC(=O)OC)OO1 [PLAKORTIDE K]
IC50 [34]: 0.57 µg/mL (≈ 2 µM)

CC(C)(O)C1=C[C@@]23CCC4C(C)(C)CCC[C@]4(C)[C@H]2C[C@H]1OO3 (stereo partly drawn)
IC50 [4]: > 5 µg/mL | IC50 [14]: > 5 µg/mL | IC50 [15]: > 5 µg/mL | IC50 [16]: > 5 µg/mL | IC50 [17]: > 5 µg/mL

C=C(C)[C@@H](CC)CC[C@@H](C)[C@H]1CC[C@@H]2[C@@H]1CC[C@H]1[C@H]2[C@@H](OO)C=C2C[C@@H](O)CC[C@@]21C
EC50 ([2]; KB, read-out: ED50 (the source's name)): 1 µg/mL (≈ 2.32 µM) | EC50 ([4]; read-out: ED50 (the source's name)): 0.5 µg/mL (≈ 1.16 µM) | EC50 [5]: 0.4 µg/mL (≈ 0.929 µM) | EC50 [37]: 1 µg/mL (≈ 2.32 µM)
